According to US10112943B2, “Substituted imidazoles as gamma secretase modulators” (Janssen Pharmaceutica NV, priority 2012, dated 2018):

What was measured:
[1] = test system: Aβ40; assay: In vivo efficacy: brain levels of soluble Aβ40 in non-transgenic rodents (MSD electrochemiluminescence); parameters: species or system mouse; details: dose 30 mg/kg oral dosing, soluble fraction, untreated animals (Ctrl) set at 100, typical protocol 4 h after dose
Text: (§1) To determine whether acute administration of an Aβ42 lowering agent would reduce Aβ42 levels in vivo, non-transgenic rodents, e.g. mice or rats were used. Animals treated with the Aβ42 lowering agent were examined and compared to those untreated or treated with vehicle and brain levels of soluble Aβ42, Aβ40, Aβ38, and Aβ37 were quantitated by Meso Scale Discovery's (MSD) electrochemiluminescence detection technology. Treatment periods varied from hours (h) to days and were adjusted based on the results of the Aβ42 lowering once a time course of onset of effect could be established.
A typical protocol for measuring Aβ42 lowering in vivo is shown but it is only one of many variations that could be used to optimize the levels of detectable Aβ. […] After 4 h, the animals were sacrificed and Aβ42 levels were analysed.
(§2) Blood was collected by decapitation and exsanguinations in EDTA-treated collection tubes. […] The left hemisphere was stored at −18° C. for quantitative analysis of test compound levels. […]
(§3) Mouse brains from non-transgenic animals were resuspended in 8 volumes of 0.4% DEA (diethylamine)/50 mM NaCl containing protease inhibitors (Roche-11873580001 or 04693159001) per gram of tissue, e.g. for 0.158 g brain, add 1.264 ml of 0.4% DEA. […] Nine parts of supernatant were neutralized with 1 part 0.5 M Tris-HCl pH 6.8 and used to quantify Aβ. […]

[2] = test system: Aβ38; assay: In vivo efficacy: brain levels of soluble Aβ38 in non-transgenic rodents (MSD electrochemiluminescence); parameters: species or system mouse; details: dose 30 mg/kg oral dosing, soluble fraction, untreated animals (Ctrl) set at 100, typical protocol 4 h after dose
Text: as §1, with “Aβ38 increasing agents” for “Aβ42 lowering agent”, “increase Aβ38” for “reduce Aβ42”, “MSD” for “Meso Scale Discovery's (MSD)”, “Aβ38 increase” for “Aβ42 lowering”
A typical protocol for measuring Aβ38 increase in vivo is shown but it is only one of many variations that could be used to optimize the levels of detectable Aβ. […] After 4 h, the animals were sacrificed and Aβ38 levels were analysed.
as §2, §3

For `Cc1cn(-c2ccc3n(c2=O)C[C@@H]2CC[C@@H](Cc4cc(C(F)(F)F)cc(C(F)(F)F)c4)N2C3=O)cn1` (single isomer, unassigned) [Compound 4, 3-[[3,5-bis(trifluoromethyl)phenyl]methyl]-2,3,11,11a-tetrahydro-8-(4-methyl-1H-imidazol-1-yl)-1H-pyrido[1,2-a]pyrrolo[1,2-d]pyrazine-5,9-dione ((3S, 11aS) or (3R, 11aR))], which “Aβ40 (% vs Ctrl) _Mean” value [1] is on record?
Its value is 69 % vs Ctrl.

And the “Aβ38 (% vs Ctrl) _Mean” value [2]?
Its value is 136 % vs Ctrl.
